The source of these data is patent publication US9580430B2, “9H-pyrimido[4,5-B]indoles and related analogs as BET bromodomain inhibitors” (THE REGENTS OF THE UNIVERSITY OF MICHIGAN, priority 2014, dated 2017).

In general, IC50 refers to the concentration at which inhibition is half-maximal.

Assay [1] deals with T1, recombinant BRD4 BD2 (Homo sapiens, UniProt O60885).
T1 construct: for recombinant BRD4 BD1 and BRD4 BD2 proteins
Nature of the assay: Competitive fluorescence-polarization (FP) binding assay, BRD4 BD2. Note: probe 1.5 nM. The note with it: competitive FP assay; protein 6 nM, probe […]; read-out: IC50 (nM) BRD4 BD2. The method in brief:
(§1)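 Buffer: 100 mM potassium phosphate, pH 6.5, 0.01% Triton X-100; compounds added in buffer with 40% ethylene glycol to preformed complex of fluorescent probe with BRD4 BD1 (10 nM final) or BD2 (6 nM final). After 30 min at room temperature, polarization read. IC50 from nonlinear fits of competition curves, with Ki.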

Assay [2] relates to MOLM-13. Nature of the assay: Cell growth inhibition, MOLM-13 leukemia cells (CellTiter-Glo). The assay is classed as cell-based. The settings on record: Homo sapiens, MOLM-13, 96 h; 4 days; read-out: IC50 (nM) MOLM-13 Cell Line (CellTiter-Glo assay). How it is done: Cell growth inhibitory activity of representative Compounds of the Disclosure was determined using CellTiter-Glo® Luminescent Cell Viability Assay. […] Cell viability was determined using the CellTiter-Glo® Luminescent Cell Viability Assay Kit (Promega, Madison, Wis.) according to the manufacture's instruction. Briefly, a volume of CellTiter-Glo® Reagent equal to the volume of cell culture medium was added to each well, and then the plates were incubated at room temperature for 10-20 minutes. The luminescent signal was measured using a Tecan Infinite M1000 multimode microplate reader (Tecan, Morrisville, N.C.). The half maximal inhibitory concentration (IC50) was calculated using the GraphPad Prism 5 software (GraphPad Software, La Jolla, Calif.).

For assay [3], the system named is MDA-MB-436. Put plainly: Cell growth inhibition, MDA-MB-436 breast cancer cells (WST-8). The assay is classed as cell-based. The note with it: Homo sapiens, MDA-MB-436, 96 h; 4 days; read-out: IC50 (nM) MDA-MB-436 Cell Line (WST assay). The method in brief:
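IC50 was computed from WST-8-based cell counting in MDA-MB-436 cells, with absorbance read at 450 nm.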
In general terms: Formazan colour is commonly taken as a measure of viable cells.

In assay [4] the target is T2, recombinant BRD4 BD1 (Homo sapiens, UniProt O60885).
T2 construct: for recombinant BRD4 BD1 and BRD4 BD2 proteins
Nature of the assay: Competitive fluorescence-polarization (FP) binding assay, BRD4 BD1. Note: probe 1.5 nM. The note with it: competitive FP assay; protein 10 nM, probe […]; read-out: IC50 (nM) BRD4 BD1. The method in brief: as §1

For `COc1cc2c(cc1-c1c(C)noc1C)[nH]c1nc(C)nc(Nc3nn(C)c4cc(F)ccc34)c12` [Cpd. No. 59, 7-(3,5-Dimethylisoxazol-4-yl)-N-(6-fluoro-1-methyl-1H-indazol-3-yl)-6-methoxy-2-methyl-9H-pyrimido[4,5-b]indol-4-amine], the IC50 in assay [1] was determined as 174 nM; in assay [2] it was 401 nM; in assay [3], 535 nM; in assay [4], 90.5 nM.

With `COc1cc2c(cc1-c1c(C)noc1C)[nH]c1nc(C)nc(Nc3cc(C4CCC4)nn3C)c12` [Cpd. No. 136, N-(3-Cyclobutyl-1-methyl-1H-pyrazol-5-yl)-7-(3,5-dimethylisoxazol-4-yl)-6-methoxy-2-methyl-9H-pyrimido[4,5-b]indol-4-amine], the IC50 in assay [1] is 6.9 nM; in assay [2] it was 26.6 nM; in assay [3], 63.2 nM; in assay [4], 10.5 nM.

Turning to `COc1cc2c(cc1-c1c(C)noc1C)[nH]c1nc(C)nc(Nc3ccnc4ccccc34)c12` [Cpd. No. 247, 7-(3,5-dimethylisoxazol-4-yl)-6-methoxy-2-methyl-N-(quinolin-4-yl)-9H-pyrimido[4,5-b]indol-4-amine], the half-maximal inhibitory concentration (IC50) in assay [1] came out at 121 nM; in assay [2] it was 113 nM; in assay [3], 115 nM; in assay [4], 165 nM.

On to `COc1cc2c(cc1-c1c(C)noc1C)[nH]c1nc(C)nc(Nc3cnn4ccccc34)c12` [Cpd. No. 14, 7-(3,5-Dimethylisoxazol-4-yl)-6-methoxy-2-methyl-N-(pyrazolo[1,5-a]pyridin-3-yl)-9H-pyrimido[4,5-b]indol-4-amine], for which the IC50 in assay [1] turned out to be 22.6 nM; in assay [2], 23.7 nM; in assay [3], 83.3 nM; in assay [4] it was 14.6 nM.

Take `COc1cc2c(cc1-c1c(C)noc1C)[nH]c1nc(C)nc(Nc3c(C)c(C)nn3C3CCC3)c12` [Cpd. No. 187, N-(1-cyclobutyl-3,4-dimethyl-1H-pyrazol-5-yl)-7-(3,5-dimethylisoxazol-4-yl)-6-methoxy-2-methyl-9H-pyrimido[4,5-b]indol-4-amine]: the IC50 in assay [1] was 10.9 nM; in assay [2], 38.8 nM; in assay [3], 121 nM; in assay [4] it was 10.5 nM.

Take `COc1cc2c(cc1-c1c(C)noc1C)[nH]c1nc(C)nc(Nc3[nH]ncc3C(C)C)c12` [Cpd. No. 32, 7-(3,5-dimethylisoxazol-4-yl)-N-(4-isopropyl-1H-pyrazol-5-yl)-6-methoxy-2-methyl-9H-pyrimido[4,5-b]indol-4-amine]: the IC50 in assay [1] came to 39.4 nM; in assay [2], 40.9 nM; in assay [3] it was 155 nM; in assay [4], 26.5 nM.

For `COc1cc2c(cc1-c1c(C)noc1C)[nH]c1nc(C)nc(Nc3cn(C)nc3C3CC3)c12` [Cpd. No. 195, N-(3-cyclopropyl-1-methyl-1H-pyrazol-4-yl)-7-(3,5-dimethylisoxazol-4-yl)-6-methoxy-2-methyl-9H-pyrimido[4,5-b]indol-4-amine], the half-inhibitory concentration (IC50) in assay [1] was found to be 14.4 nM; in assay [2], 29.1 nM; in assay [3], 75.1 nM; in assay [4] it was 16.6 nM.

As for `CCc1cccc(Nc2nc(C)nc3[nH]c4cc(-c5c(C)noc5C)c(OC)cc4c23)c1` [Cpd. No. 216, 7-(3,5-dimethylisoxazol-4-yl)-N-(3-ethylphenyl)-6-methoxy-2-methyl-9H-pyrimido[4,5-b]indol-4-amine], the IC50 in assay [1] was 35 nM; in assay [2], 220 nM; in assay [3] it was 292 nM; in assay [4], 19 nM.

Consider `COc1cc2c(cc1-c1c(C)noc1C)[nH]c1nc(C)nc(Nc3cn(C)nc3C3CCC3)c12` [Cpd. No. 200, N-(3-cyclobutyl-1-methyl-1H-pyrazol-4-yl)-7-(3,5-dimethylisoxazol-4-yl)-6-methoxy-2-methyl-9H-pyrimido[4,5-b]indol-4-amine], for which the half-inhibitory concentration (IC50) came out at 5.9 nM in assay [1], 25.4 nM in assay [2], 40 nM in assay [3] and 10.9 nM in assay [4].

`COc1cc2c(cc1-c1c(C)noc1C)[nH]c1nc(C)nc(Nc3scnc3C(C)(C)C)c12` [Cpd. No. 33, 4-(tert-butyl)-N-(7-(3,5-dimethylisoxazol-4-yl)-6-methoxy-2-methyl-9H-pyrimido[4,5-b]indol-4-yl)thiazol-5-amine]: the IC50 in assay [1] is 21.5 nM; in assay [2] it was 2420 nM; in assay [3] it was 303 nM; in assay [4] it was 24.5 nM.

For `COc1cc2c(cc1-c1c(C)noc1C)[nH]c1nc(C)nc(Nc3cnn4cccnc34)c12` [Cpd. No. 16, 7-(3,5-Dimethylisoxazol-4-yl)-6-methoxy-2-methyl-N-(pyrazolo[1,5-a]pyrimidin-3-yl)-9H-pyrimido[4,5-b]indol-4-amine], the IC50 stood at 194 nM in assay [1], 14.6 nM in assay [2], 529 nM in assay [3] and 248 nM in assay [4].

Consider `COc1cc2c(cc1-c1c(C)noc1C)[nH]c1nc(C)nc(Nc3cccc(C)c3)c12` [Cpd. No. 212, 7-(3,5-dimethylisoxazol-4-yl)-6-methoxy-2-methyl-N-m-tolyl-9H-pyrimido[4,5-b]indol-4-amine], for which the IC50 turned out to be 8 nM in assay [1], 103 nM in assay [2], 112 nM in assay [3] and 18 nM in assay [4].

With `COc1cc2c(cc1-c1c(C)noc1C)[nH]c1nc(C)nc(Nc3c4c(nn3C)CCC4)c12` [Cpd. No. 122, 7-(3,5-Dimethylisoxazol-4-yl)-6-methoxy-2-methyl-N-(2-methyl-2,4,5,6-tetrahydrocyclopenta-[c]pyrazol-3-yl)-9H-pyrimido[4,5-b]indol-4-amine], the half-inhibitory concentration (IC50) in assay [1] was 2.3 nM; in assay [2] it was 6 nM; in assay [3] it was 7.8 nM; in assay [4], 4.3 nM.

Turning to `COc1cc2c(cc1-c1c(C)noc1C)[nH]c1nc(C)nc(Nc3c(C)cnn3C3CCC3)c12` [Cpd. No. 198, N-(1-cyclobutyl-4-methyl-1H-pyrazol-5-yl)-7-(3,5-dimethylisoxazol-4-yl)-6-methoxy-2-methyl-9H-pyrimido[4,5-b]indol-4-amine], the IC50 in assay [1] was found to be 3.6 nM; in assay [2], 25.7 nM; in assay [3], 58.7 nM; in assay [4] it was 6.9 nM.

In the case of `COc1cc2c(cc1-c1c(C)noc1C)[nH]c1nc(C)nc(Nc3ccc4cc[nH]c4c3)c12` [Cpd. No. 233, 7-(3,5-dimethylisoxazol-4-yl)-N-(1H-indol-6-yl)-6-methoxy-2-methyl-9H-pyrimido[4,5-b]indol-4-amine], the IC50 in assay [1] is 38 nM; in assay [2] it was 101 nM; in assay [3], 222 nM; in assay [4] it was 69 nM.

On to `CCn1nc(C(F)(F)F)cc1Nc1nc(C)nc2[nH]c3cc(-c4c(C)noc4C)c(OC)cc3c12` [Cpd. No. 146, 7-(3,5-Dimethylisoxazol-4-yl)-N-(1-ethyl-3-(trifluoromethyl)-1H-pyrazol-5-yl)-6-methoxy-2-methyl-9H-pyrimido[4,5-b]indol-4-amine], for which the IC50 in assay [1] came out at 7.7 nM; in assay [2] it was 26 nM; in assay [3], 39.2 nM; in assay [4] it was 13.7 nM.
